This is an account of results in patent US8735584B2 (Merck Patent GmbH, priority 2008, dated 2014).

In this assay the target is T1, GST-Aurora A (Homo sapiens, UniProt O14965).
T1 construct: N-terminal GST fusion with full length Aurora A (1-403 amino acids); purchased Carna Biosciences 05-101
T1 sequence (O14965 1-403): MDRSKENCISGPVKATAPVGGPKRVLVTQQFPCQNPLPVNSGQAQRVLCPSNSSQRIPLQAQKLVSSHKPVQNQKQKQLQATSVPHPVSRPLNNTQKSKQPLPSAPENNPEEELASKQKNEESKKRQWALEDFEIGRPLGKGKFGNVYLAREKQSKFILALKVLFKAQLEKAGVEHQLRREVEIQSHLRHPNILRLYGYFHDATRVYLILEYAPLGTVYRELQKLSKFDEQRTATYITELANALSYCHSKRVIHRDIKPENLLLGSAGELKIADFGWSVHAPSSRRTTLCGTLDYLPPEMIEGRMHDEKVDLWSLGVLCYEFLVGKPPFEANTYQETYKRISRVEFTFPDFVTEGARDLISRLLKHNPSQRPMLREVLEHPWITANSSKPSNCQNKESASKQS
Description: Aurora A IC50, Caliper LC3000 mobility shift assay. Particulars: LC3000 method; 15 uM ATP (the KM value); read-out: Aurora Kinase A Activity (IC50). Type of assay: biochemical. As to the method: The Aurora assays described here are performed on two Caliper Life Sciences systems: the LC3000 and the Desktop Profiler. These provide data on enzyme activity via measurement of the relative amounts of phosphorylated or unphosphorylated fluorescently labelled substrate peptide at the end of an enzymatic reaction. These different states of peptide are resolved by applying a potential difference across the sample. The presence of the charged phosphate group on the product (as opposed to the substrate) causes a different peptide mobility between the two peptides. This is visualized by excitation of the fluorescent label on the substrate and product peptides and represented as peaks within the analysis software.
In order to measure inhibitor activity of Aurora A inhibitors in the Caliper Life Sciences LC3000, a TTP Mosquito liquid handling instrument is used to place 0.25 ul of the appropriate concentration of inhibitor in 100% DMSO (for a dose response curve calculation) into each well of a 384-well plate. To this reaction components are added to a final volume of 25 ul: • 0.067 ng/ul GST-Aurora A (Carna Biosciences 05-101. N-terminal GST fusion with full length Aurora A (1-403 amino acids), accession number NP 940835.1). • 15 uM ATP (Fluke, 02055) • 1 mM DTT (Sigma, D0632) • 1 mM MgCl2 (Sigma, M1028) • 1 uM substrate peptide (sequence FITC-LRRASLG-(CONH2), synthesized by Tufts Peptide Synthesis service. • 100 mM HEPES pH 7.5 (Calbiochem, 391338) • 0.015% Brij-35 (Sigma, B4184)
The reaction is incubated for 90 min at 25 C, and then stopped by the addition of 70 ul of Stop buffer (100 mM HEPES pH 7.5, 0.015% Brij-35, 10 mM EDTA (Sigma, E7889)).
The plate is read on a Caliper LC3000 in an Off-Chip mobility shift assay format, using the following parameters for a 12-sipper chip: screening pressure—1.8 psi, upstream voltage—2700, downstream voltage—1000. These conditions cause unphosphorylated substrate and phosphorylated product peptide to resolve as separate peaks allowing direct measurement of percentage of conversion of substrate to product. The percent conversion can be plotted against concentration of inhibitor to produce a sigmoidal dose response curve, from which an 1050 can be calculated using XLFit for Microsoft Excel.
In the desired wells of a 384-well plate, Aurora A (0.067 ng/ul) was incubated with 15 uM ATP (the KM value), 1 mM DTT, 1 mM MgCl2, and 1 uM peptide substrate (sequence FITC-LRRASLG-(CONH2), FITC=fluorescein isothiocyanate) in 100 mM HEPES pH 7.5 and 0.015% Brij-35 buffer. The reaction was incubated for 90 min at 25 C, and then stopped by the addition of 45 ul of Stop buffer (100 mM HEPES ph 7.5, 0.015% Brij-35, 10 mM EDTA).
The plate was read in a Caliper LC 3000 in an Off-Chip mobility shift assay format, using the following parameters: screening pressure—1.8 psi, upstream voltage—2700, downstream voltage—1000. These conditions cause unphosphorylated substrate peptide to resolve as a peak before that of the phosphorylated peptide product.
In the following table “+” means >100 nM, “++” means 11-100 nM, and “+++” means <11 nM.

A value given as a limit tells only on which side of the number the result lay.

The IC50 is the concentration needed to halve the response being measured. `O=C(Nc1ccc(Nc2ccnc3[nH]c(=O)c4ccccc4c23)cc1)c1cccnc1` [Compound 344]: the IC50 was 11 to 100 nM.

Consider `Cn1ccc(C(=O)Nc2ccc(Nc3ccnc4[nH]c(=O)c5ccccc5c34)cc2)n1` [Compound 345, 1-methyl-N-(4-(6-oxo-5,6-dihydrobenzo[c][1,8]naphthyridin-1-ylamino)phenyl)-1H-pyrazole-3-carboxamide], for which the 50% inhibitory concentration (IC50) fell in the range of 11 to 100 nM.

Take `CN1CCC(C(=O)Nc2ccc(Nc3ccnc4[nH]c(=O)c5ccccc5c34)cc2)CC1` [Compound 346, 1-Methyl-N-(4-(6-oxo-5,6-dihydrobenzo[c][1,8]naphthyridin-1-ylamino)phenyl)piperidine-4-carboxamide]: the IC50 is above 100 nM.

For the compound `O=C(Nc1ccc(Nc2ccnc3[nH]c(=O)c4ccccc4c23)cc1)C(F)(F)F` [Compound 348, 2,2,2-Trifluoro-N-(4-(6-oxo-5,6-dihydrobenzo[c][1,8]naphthyridin-1-ylamino)phenyl)acetamide], the IC50 was above 100 nM.

Take `O=C(CC(F)(F)F)Nc1ccc(Nc2ccnc3[nH]c(=O)c4ccccc4c23)cc1` [Compound 349, 3,3,3-Trifluoro-N-(4-(6-oxo-5,6-dihydrobenzo[c][1,8]naphthyridin-1-ylamino)phenyl)propanamide]: the IC50 was below 11 nM.

For the compound `O=C(Cc1ccccc1)Nc1ccc(Nc2ccnc3[nH]c(=O)c4ccccc4c23)cc1` [Compound 350, N-(4-(6-Oxo-5,6-dihydrobenzo[c][1,8]naphthyridin-1-ylamino)phenyl)-2-phenylacetamide], the IC50 lay within 11 to 100 nM.

As for `O=C(Nc1ccc(Nc2ccnc3[nH]c(=O)c4ccccc4c23)cc1)C1CC1` [Compound 351, N-(4-(6-Oxo-5,6-dihydrobenzo[c][1,8]naphthyridin-1-ylamino)phenyl)cyclopropanecarboxamide], the 50% inhibitory concentration (IC50) lay in the range of 11 to 100 nM.

Regarding `O=C(CC1CC1)Nc1ccc(Nc2ccnc3[nH]c(=O)c4ccccc4c23)cc1` [Compound 352, 2-Cyclopropyl-N-(4-(6-oxo-5,6-dihydrobenzo[c][1,8]naphthyridin-1-ylamino)phenyl)acetamide], the IC50 lay in the range of 11 to 100 nM.

On to `CN1CCN(Cc2cccc(C(=O)Nc3ccc(Nc4ccnc5[nH]c(=O)c6ccccc6c45)cc3)c2)CC1` [Compound 354, 3-((4-Methylpiperazin-1-yl)methyl)-N-(4-(6-oxo-5,6-dihydrobenzo[c][1,8]naphthyridin-1-ylamino)phenyl)benzamide], for which the IC50 is above 100 nM.

In the case of `CN1CCN(Cc2ccccc2C(=O)Nc2ccc(Nc3ccnc4[nH]c(=O)c5ccccc5c34)cc2)CC1` [Compound 355, 2-((4-Methylpiperazin-1-yl)methyl)-N-(4-(6-oxo-5,6-dihydrobenzo[c][1,8]naphthyridin-1-ylamino)phenyl)benzamide], the IC50 was above 100 nM.

`O=C(Nc1ccc(Nc2ccnc3[nH]c(=O)c4ccccc4c23)cc1)c1ccccc1OCCCN1CCOCC1` [Compound 357, 2-(3-morpholinopropoxy)-N-(4-(6-oxo-5,6-dihydrobenzo[c][1,8]naphthyridin-1-ylamino)phenyl)benzamide]: the IC50 was above 100 nM.

Take `O=C(c1cc(F)cc(F)c1)N1CCC(CNc2ccnc3[nH]c(=O)c4ccccc4c23)C1` (centres unmarked) [Compound 362, 1-((1-(3,5-Difluorobenzoyl)pyrrolidin-3-yl)methylamino)benzo[c][1,8]naphthyridin-6(5H)-one]: the IC50 is above 100 nM.

On to `O=C(Nc1ccccc1)C1(CNc2ccnc3[nH]c(=O)c4ccccc4c23)CC1` [Compound 363, 1-((6-Oxo-5,6-dihydrobenzo[c][1,8]naphthyridin-1-ylamino)methyl)-N-phenylcyclopropanecarboxamide], for which the IC50 is above 100 nM.

On to `O=C(c1ccccc1)N1CC(Nc2ccnc3[nH]c(=O)c4ccccc4c23)C1` [Compound 366, 1-(1-Benzoylazetidin-3-ylamino)benzo[c][1,8]naphthyridin-6(5H)-one], for which the IC50 is above 100 nM.

With `O=C(Cc1ccccc1)N1CCC(Nc2ccnc3[nH]c(=O)c4ccccc4c23)C1` (centres unmarked) [Compound 369, 1-(1-(2-Phenylacetyl)pyrrolidin-3-ylamino)benzo[c][1,8]naphthyridin-6(5H)-one], the IC50 was above 100 nM.

Turning to `O=C(CN1CC(Nc2ccnc3[nH]c(=O)c4ccccc4c23)C1)Nc1ccccc1` [Compound 370, 2-(3-(6-Oxo-5,6-dihydrobenzo[c][1,8]naphthyridin-1-ylamino)azetidin-1-yl)-N-phenylacetamide], the IC50 was above 100 nM.

For `O=C(CN1CCC(Nc2ccnc3[nH]c(=O)c4ccccc4c23)C1)Nc1ccccc1` (centres unmarked) [Compound 371, 2-(3-(6-Oxo-5,6-dihydrobenzo[c][1,8]naphthyridin-1-ylamino)pyrrolidin-1-yl)-N-phenylacetamide], the IC50 is above 100 nM.

For `O=C(CN1CCC(Nc2ccnc3[nH]c(=O)c4ccccc4c23)CC1)Nc1ccccc1` [Compound 372, 2-(4-(6-Oxo-5,6-dihydrobenzo[c][1,8]naphthyridin-1-ylamino)piperidin-1-yl)-N-phenylacetamide], the IC50 is 11 to 100 nM.

As for `O=C(CN1CCC(Nc2ccnc3[nH]c(=O)c4ccccc4c23)CC1)Nc1cccc(F)c1` [Compound 373, N-(3-Fluorophenyl)-2-(4-(6-oxo-5,6-dihydrobenzo[c][1,8]naphthyridin-1-ylamino)piperidin-1-yl)acetamide], the IC50 is 11 to 100 nM.

For `O=C(CN1CCC(Nc2ccnc3[nH]c(=O)c4ccccc4c23)CC1)Nc1ccc(F)cc1` [Compound 374, N-(4-Fluorophenyl)-2-(4-(6-oxo-5,6-dihydrobenzo[c][1,8]naphthyridin-1-ylamino)piperidin-1-yl)acetamide], the IC50 lay within 11 to 100 nM.

Consider `CN(C(=O)CN1CCC(Nc2ccnc3[nH]c(=O)c4ccccc4c23)CC1)c1ccccc1` [Compound 377, N-Methyl-2-(4-(6-oxo-5,6-dihydrobenzo[c][1,8]naphthyridin-1-ylamino)piperidin-1-yl)-N-phenylacetamide], for which the IC50 is above 100 nM.

For `O=C(Nc1ccc(Nc2ccnc3[nH]c(=O)c4ccccc4c23)cc1)c1ccc(F)cc1C(F)(F)F` [Compound 378, 4-Fluoro-N-[4-(6-oxo-5,6-dihydro-benzo[c][1,8]naphthyridin-1-ylamino)-phenyl]-2-trifluoromethyl-benzamide], the IC50 was below 11 nM.

Consider `O=C(Nc1ccc(Nc2ccnc3[nH]c(=O)c4ccccc4c23)cc1)c1ccccc1C(F)(F)F` [Compound 379, N-[4-(6-Oxo-5,6-dihydro-benzo[c][1,8]naphthyridin-1-ylamino)-phenyl]-2-trifluoromethyl-benzamide], for which the IC50 is below 11 nM.

`O=C(Nc1ccc(Nc2ccnc3[nH]c(=O)c4ccccc4c23)cc1)c1ccccc1F` [Compound 380, 2-Fluoro-N-[4-(6-oxo-5,6-dihydro-benzo[c][1,8]naphthyridin-1-ylamino)-phenyl]-benzamide]: the IC50 is below 11 nM.

On to `O=C(Nc1ccc(Nc2ccnc3[nH]c(=O)c4ccccc4c23)cc1)c1cccc(F)c1` [Compound 381, 3-Fluoro-N-[4-(6-oxo-5,6-dihydro-benzo[c][1,8]naphthyridin-1-ylamino)-phenyl]-benzamide], for which the IC50 is below 11 nM.

In the case of `O=C(Nc1ccc(Nc2ccnc3[nH]c(=O)c4ccccc4c23)cc1)c1ccc(F)cc1` [Compound 382, 4-Fluoro-N-[4-(6-oxo-5,6-dihydro-benzo[c][1,8]naphthyridin-1-ylamino)-phenyl]-benzamide], the IC50 was below 11 nM.
